Two compounds from article PMC6677754, “In silico design and optimization of selective membranolytic anticancer peptides” (Scientific Reports, 2019) can be followed below.

Experiment in all cases: NCI-60 screening
Holding throughout (format): cell-based, human

The test system of one assay is UACC-257. To be noted: UACC-257 (Melanoma); log GI50; 48 h, sulforhodamine B, 10^-4 to 10^-8 M. As for the experimental part:
(§1) NCI-60 screening procedure
(§2) The NCI-60 screening procedure was performed by the Developmental Therapeutics Program of the National Cancer Institute. The procedure was performed as previously described24 in 96-well microtiter plates. Each peptide was tested in a 5-concentration assay, starting at 10^-4 M and diluting 10-fold to the lowest 10^-8 M concentration. The peptides were incubated for 48 h and the cell concentration was assayed by using the sulforhodamine B assay25 and optical density measurements. The growth inhibition (GI50) value24, measures the growth inhibitory power of the drug agent. The GI50 value is the concentration of the test drug for which the condition in Eq. S1 is met, where T is the optical density of the test well after a 48-h exposure to the peptide, T0 the optical density before applying the peptide drug and C the control optical density of a well where no peptide was applied.

In the next assay the test system is RXF-393. To be noted: RXF-393 (Renal); log GI50; 48 h, sulforhodamine B, 10^-4 to 10^-8 M. As for the experimental part: as §1, §2
For the next assay, the system named is SK-OV-3. Conditions: SK-OV-3 (Ovarian); log GI50; 48 h, sulforhodamine B, 10^-4 to 10^-8 M. As for the experimental part:
as §1, §2

In a further assay the test system is HS-578T. To be noted: HS-578T (Breast); log GI50; 48 h, sulforhodamine B, 10^-4 to 10^-8 M. As to the method:
as §1, §2

For the next assay, the system named is OVCAR-8. To be noted: OVCAR-8 (Ovarian); log GI50; 48 h, sulforhodamine B, 10^-4 to 10^-8 M. As for the experimental part:
as §1, §2

For another assay, the system named is A549/ATCC. To be noted: A549/ATCC (Lung); log GI50; 48 h, sulforhodamine B, 10^-4 to 10^-8 M. As for the experimental part: as §1, §2
A further assay deals with SF-268. Conditions: SF-268 (CNS); log GI50; 48 h, sulforhodamine B, 10^-4 to 10^-8 M. As to the method:
as §1, §2

The subject of the next assay is TK-10. To be noted: TK-10 (Renal); log GI50; 48 h, sulforhodamine B, 10^-4 to 10^-8 M. As for the experimental part:
as §1, §2

The test system of the next assay is SK-MEL-28. To be noted: SK-MEL-28 (Melanoma); log GI50; 48 h, sulforhodamine B, 10^-4 to 10^-8 M. As for the experimental part: as §1, §2
In the next assay the test system is SK-MEL-5. Conditions: SK-MEL-5 (Melanoma); log GI50; 48 h, sulforhodamine B, 10^-4 to 10^-8 M. As for the experimental part:
as §1, §2

Another assay deals with SNB-19. To be noted: SNB-19 (CNS); log GI50; 48 h, sulforhodamine B, 10^-4 to 10^-8 M. As for the experimental part:
as §1, §2

For another assay, the system named is NCI-H23. To be noted: NCI-H23 (Lung); log GI50; 48 h, sulforhodamine B, 10^-4 to 10^-8 M. As to the method:
as §1, §2

Another assay has as its system MDA-MB-468. To be noted: MDA-MB-468 (Breast); log GI50; 48 h, sulforhodamine B, 10^-4 to 10^-8 M. As to the method: as §1, §2
The subject of a further assay is T-47D. To be noted: T-47D (Breast); log GI50; 48 h, sulforhodamine B, 10^-4 to 10^-8 M. As to the method:
as §1, §2

The subject of a further assay is 786-0. Conditions: 786-0 (Renal); log GI50; 48 h, sulforhodamine B, 10^-4 to 10^-8 M. As for the experimental part:
as §1, §2

The test system of a further assay is ACHN. Conditions: ACHN (Renal); log GI50; 48 h, sulforhodamine B, 10^-4 to 10^-8 M. As for the experimental part:
as §1, §2

In another assay the test system is U251. Conditions: U251 (CNS); log GI50; 48 h, sulforhodamine B, 10^-4 to 10^-8 M. As for the experimental part:
as §1, §2

The next assay relates to HCT-116. To be noted: HCT-116 (Colon); log GI50; 48 h, sulforhodamine B, 10^-4 to 10^-8 M. As to the method: as §1, §2
In the next assay the test system is MALME-3M. To be noted: MALME-3M (Melanoma); log GI50; 48 h, sulforhodamine B, 10^-4 to 10^-8 M. As to the method: as §1, §2
For another assay, the system named is IGVROV1. To be noted: IGVROV1 (Ovarian); log GI50; 48 h, sulforhodamine B, 10^-4 to 10^-8 M. As to the method:
as §1, §2

Another assay relates to KM12. To be noted: KM12 (Colon); log GI50; 48 h, sulforhodamine B, 10^-4 to 10^-8 M. As for the experimental part: as §1, §2
In the next assay the test system is PC-3. Conditions: PC-3 (Prostate); log GI50; 48 h, sulforhodamine B, 10^-4 to 10^-8 M. As for the experimental part: as §1, §2
The next assay deals with EKVX. To be noted: EKVX (Lung); log GI50; 48 h, sulforhodamine B, 10^-4 to 10^-8 M. As to the method:
as §1, §2

Peptide text beside a SMILES is read from it.

`CC[C@H](C)[C@H](NC(=O)[C@H](CCCNC(=N)N)NC(=O)[C@H](Cc1c[nH]c2ccccc12)NC(=O)[C@@H](NC(=O)[C@H](CCCCN)NC(=O)[C@H](CCCCN)NC(=O)[C@@H](NC(=O)[C@@H](NC(=O)[C@@H](NC(=O)[C@H](CCCCN)NC(=O)[C@H](Cc1ccccc1)NC(=O)[C@H](CCCCN)NC(=O)[C@H](CCCCN)NC(=O)[C@H](Cc1ccccc1)NC(=O)[C@@H](NC(=O)[C@@H](N)CCCCN)[C@@H](C)CC)[C@@H](C)O)[C@@H](C)CC)[C@@H](C)CC)C(C)C)C(=O)N[C@@H](Cc1ccccc1)C(=O)NCC(=O)N[C@@H](CCCNC(=N)N)C(=O)N[C@@H](Cc1ccccc1)C(N)=O` [AmphiArc2] (H-KIFKKFKTIIKKVWRIFGRF-NH2): the “Log GI (M)” value with UACC-257 is given as -5.54 M; with RXF-393 it was -5.68 M; in the assay with SK-OV-3 it was -5.50 M; in the assay on HS-578T, -5.65 M; with OVCAR-8, -5.48 M; in the assay with A549/ATCC it was -5.60 M. The “Log GI (M)” value was -5.68 M in the assay with SF-268; -5.65 M with TK-10; -5.66 M with SK-MEL-28; -5.64 M with SK-MEL-5; -5.58 M in the assay with SNB-19; -5.61 M in the assay on NCI-H23. The “Log GI (M)” value was -5.88 M in the assay with MDA-MB-468; -5.66 M in the assay on T-47D; -5.53 M with 786-0; -5.71 M in the assay with ACHN; -5.52 M in the assay with U251; -5.49 M in the assay on HCT-116. Further, the “Log GI (M)” value in the assay on MALME-3M is recorded as -5.89 M; with IGVROV1, -5.68 M; with KM12 it was -5.63 M; in the assay on PC-3, -5.66 M; with EKVX, -5.73 M.

Take `CC[C@H](C)[C@H](NC(=O)[C@H](CCCCN)NC(=O)[C@H](CCCCN)NC(=O)[C@@H](NC(=O)[C@@H](NC(=O)[C@@H](N)Cc1c[nH]cn1)[C@@H](C)CC)[C@@H](C)CC)C(=O)N[C@@H](CCCNC(=N)N)C(=O)N[C@H](C(=O)N[C@@H](Cc1c[nH]c2ccccc12)C(=O)N[C@@H](Cc1ccc(O)cc1)C(=O)N[C@@H](CCCNC(=N)N)C(=O)N[C@@H](CCCCN)C(=O)N[C@@H](C)C(=O)N[C@@H](Cc1c[nH]c2ccccc12)C(=O)N[C@@H](Cc1c[nH]cn1)C(=O)N[C@H](C(=O)N[C@@H](CC(C)C)C(=O)NCC(=O)N[C@@H](CCCCN)C(=O)N[C@H](C(N)=O)C(C)C)C(C)C)[C@@H](C)O` [Off2] (H-HIIKKIRTWYRKAWHVLGKV-NH2): the “Log GI (M)” value in the assay on UACC-257 is given as -5.07 M; with RXF-393, -5.37 M; in the assay with SK-OV-3, -5.20 M; in the assay with HS-578T, -5.45 M; in the assay with OVCAR-8, -5.32 M; with A549/ATCC it was -5.26 M. Besides, the “Log GI (M)” value with SF-268 was -5.46 M; with TK-10, -5.49 M; with SK-MEL-28, -5.58 M; in the assay with SK-MEL-5, -5.40 M; with SNB-19 it was -4.74 M; in the assay with NCI-H23, -5.31 M. For the same compound, the “Log GI (M)” value in the assay on MDA-MB-468 is listed as -5.19 M; in the assay with T-47D, -5.72 M; in the assay with 786-0, -5.47 M; in the assay on ACHN, -4.88 M; with U251, -5.14 M; in the assay on HCT-116 it was -4.76 M. Moreover, the “Log GI (M)” value is -5.64 M in the assay on MALME-3M; -5.36 M in the assay with IGVROV1; -5.60 M in the assay on KM12; -5.55 M in the assay with PC-3; -5.63 M with EKVX.
